Experimental findings from patent publication US12193328B2, “Aromatic compounds and use thereof for formation of molecular layers and fabrication of switching elements for memristive devices” (MERCK PATENT GMBH, priority 2019, dated 2025) are described below.

Like-named read-outs stand apart in the source and are kept apart here. Bounds are passed on as bounds.

This data set is described as follows: Comparative solubility test in various solvents. Format: physicochemical. Particulars: 1 mM concentration, 23° C., stirred 18 h, visually inspected; for solubility at 18 h: organic solvent or mixture, thermodynamic from solid. On the procedure:
Comparative Solubility Test
The comparative solubilities of the following Reference Compound 1 (reference from DE102017005884):
[drawing 83] and of Synthesis Example 1 in various solvents at 1 mM concentration at 23° C. are experimentally determined. The sample is stirred for 18 h at 23° C. and then visually inspected. In the table below the expression “soluble” means that after 18 h a clear solution is obtained. “Not soluble” means that remaining solid is observed.

Setting [1] is: 1-Methoxy-2-propanol acetate, read-out: Solubility in 1-methoxy-2-propanol acetate.
[2] abbreviates: Cyclohexanone, read-out: Solubility in cyclohexanone.

For the molecule `CCCCC[C@H]1CC[C@H](c2ccc(Oc3c(C)cc(P(=O)(O)O)cc3C)c(F)c2F)CC1` [Synthesis Example 1, [4-[2,3-difluoro-4-(4-pentylcyclohexyl)phenoxy]-3,5-dimethyl-phenyl]phosphonic acid], the Solubility in chloroform entry is recorded as “Soluble” and the “Solubility in THF” value is on record as “Soluble”. Further, the “Solubility in 1-methoxy-2-propanol acetate” value (1-Methoxy-2-propanol acetate) is “Soluble”. Further, the Solubility in cyclohexanone entry (Cyclohexanone) was “Soluble”. The “Solubility in ethyl acetate” value (Ethyl acetate) is “Soluble”. Besides, the solubility at 18 h under setting [1] is more than 1000 µM. The solubility at 18 h under setting [2] is more than 1000 µM. Further, the solubility at 18 h (Toluene, read-out: Solubility in toluene) is less than 1000 µM.
As to `CCCCCC1CCC(c2ccc(OCCCCCCCCCCCP(=O)(O)O)c(F)c2F)CC1` (centres unmarked) [Reference 1, 11-[2,3-difluoro-4-(4-pentylcyclohexyl)phenoxy]undecylphosphonic acid, reference compound], the Solubility in chloroform entry is reported as “Soluble” and the “Solubility in THF” value is reported as “Soluble”. Further, the Solubility in toluene result (Toluene) was “Soluble”. Further, the solubility at 18 h under setting [1] is less than 1000 µM. Besides, under setting [2], the solubility at 18 h is less than 1000 µM. In addition, the solubility at 18 h (Ethyl acetate, read-out: Solubility in ethyl acetate) was less than 1000 µM.

In general, solubility refers to how much of the substance goes into solution per volume.
